Measured values taken from the kinase profiling compilation of Christmann-Franck et al. (2016).

Assays:
[1] = molecular target: GAK (human) (UniProt O14976); experiment: KINOMEscan competition binding; conditions: compound 10.0 µM
[2] = molecular target: BRSK2 (human) (UniProt Q8IWQ3)
[3] = molecular target: LTK (human) (UniProt P29376)
[4] = molecular target: PAK2 (human) (UniProt Q13177)
[5] = molecular target: PRKAA1 (human) (UniProt Q13131)
[6] = molecular target: PTK2 (human) (UniProt Q05397)
[7] = molecular target: PTK2B (human) (UniProt Q14289)
[8] = molecular target: ROS1 (human) (UniProt P08922)
Chain of ROS1 (human) (P08922 whole entry, looked up): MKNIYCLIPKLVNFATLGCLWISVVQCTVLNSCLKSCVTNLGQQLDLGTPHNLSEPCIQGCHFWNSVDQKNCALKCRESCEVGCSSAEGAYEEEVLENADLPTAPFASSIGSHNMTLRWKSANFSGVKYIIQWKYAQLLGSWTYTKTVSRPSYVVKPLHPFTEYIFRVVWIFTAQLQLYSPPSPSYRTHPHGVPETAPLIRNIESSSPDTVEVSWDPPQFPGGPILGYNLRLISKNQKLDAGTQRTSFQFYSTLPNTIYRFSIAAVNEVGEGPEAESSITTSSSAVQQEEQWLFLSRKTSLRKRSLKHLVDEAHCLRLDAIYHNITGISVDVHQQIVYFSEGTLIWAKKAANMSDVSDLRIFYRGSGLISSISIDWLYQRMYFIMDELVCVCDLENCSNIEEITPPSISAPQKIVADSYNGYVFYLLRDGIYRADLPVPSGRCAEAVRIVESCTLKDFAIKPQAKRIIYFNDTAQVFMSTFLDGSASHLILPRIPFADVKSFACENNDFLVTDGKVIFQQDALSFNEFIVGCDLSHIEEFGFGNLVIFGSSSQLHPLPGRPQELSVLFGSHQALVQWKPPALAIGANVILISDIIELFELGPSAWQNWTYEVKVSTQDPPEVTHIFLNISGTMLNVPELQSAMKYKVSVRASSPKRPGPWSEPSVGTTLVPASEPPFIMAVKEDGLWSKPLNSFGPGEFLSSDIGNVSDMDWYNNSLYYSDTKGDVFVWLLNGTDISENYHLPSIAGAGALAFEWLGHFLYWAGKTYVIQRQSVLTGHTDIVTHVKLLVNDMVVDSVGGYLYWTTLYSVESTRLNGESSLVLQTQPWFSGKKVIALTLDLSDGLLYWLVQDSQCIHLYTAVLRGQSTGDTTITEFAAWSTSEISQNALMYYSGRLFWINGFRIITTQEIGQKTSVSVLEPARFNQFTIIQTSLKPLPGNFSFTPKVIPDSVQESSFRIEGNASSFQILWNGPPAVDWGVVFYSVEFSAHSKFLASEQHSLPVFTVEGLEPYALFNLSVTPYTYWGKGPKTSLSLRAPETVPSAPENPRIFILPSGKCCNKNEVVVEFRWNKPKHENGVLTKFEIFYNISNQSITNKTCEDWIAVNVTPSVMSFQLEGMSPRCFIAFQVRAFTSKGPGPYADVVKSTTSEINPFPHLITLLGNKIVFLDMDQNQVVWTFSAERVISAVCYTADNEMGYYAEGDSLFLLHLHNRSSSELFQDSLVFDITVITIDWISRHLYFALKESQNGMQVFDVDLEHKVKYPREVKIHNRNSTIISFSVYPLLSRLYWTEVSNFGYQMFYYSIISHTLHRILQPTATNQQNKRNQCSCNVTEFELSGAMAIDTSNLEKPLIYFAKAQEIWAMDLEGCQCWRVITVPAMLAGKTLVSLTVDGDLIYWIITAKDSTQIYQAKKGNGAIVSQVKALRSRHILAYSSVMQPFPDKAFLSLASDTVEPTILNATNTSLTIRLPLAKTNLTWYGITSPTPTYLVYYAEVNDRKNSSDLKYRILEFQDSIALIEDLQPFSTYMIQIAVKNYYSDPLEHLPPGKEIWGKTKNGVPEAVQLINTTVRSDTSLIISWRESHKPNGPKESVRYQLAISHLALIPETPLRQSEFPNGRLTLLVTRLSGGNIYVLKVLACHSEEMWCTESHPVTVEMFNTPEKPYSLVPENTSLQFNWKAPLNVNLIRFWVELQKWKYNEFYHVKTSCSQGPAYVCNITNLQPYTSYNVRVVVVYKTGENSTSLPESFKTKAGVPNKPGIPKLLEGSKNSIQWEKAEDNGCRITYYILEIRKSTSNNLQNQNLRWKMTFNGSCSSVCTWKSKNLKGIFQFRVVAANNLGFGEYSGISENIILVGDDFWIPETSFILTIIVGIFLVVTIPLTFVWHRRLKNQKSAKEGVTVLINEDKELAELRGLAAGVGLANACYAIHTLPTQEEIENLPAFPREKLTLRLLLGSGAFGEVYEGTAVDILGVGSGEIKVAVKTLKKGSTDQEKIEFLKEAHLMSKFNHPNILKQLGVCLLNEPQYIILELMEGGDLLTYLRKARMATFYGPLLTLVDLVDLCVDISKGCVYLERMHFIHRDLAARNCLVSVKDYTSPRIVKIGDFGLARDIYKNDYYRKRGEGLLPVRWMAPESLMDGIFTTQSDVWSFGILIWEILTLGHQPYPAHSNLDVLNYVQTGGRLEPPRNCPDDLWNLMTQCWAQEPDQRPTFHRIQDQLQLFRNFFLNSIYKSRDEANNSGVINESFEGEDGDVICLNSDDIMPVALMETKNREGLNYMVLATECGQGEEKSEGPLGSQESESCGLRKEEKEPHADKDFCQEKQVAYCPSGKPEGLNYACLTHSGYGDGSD

[9] = molecular target: RPS6KA4 KD1 (human) (UniProt O75676)
[10] = molecular target: RPS6KA5 KD1 (human) (UniProt O75582)
[11] = molecular target: TYK2 JH1 catalytic (human) (UniProt P29597)
[12] = molecular target: TXK (human) (UniProt P42681)

Chain of GAK (human) (O14976 whole entry, looked up): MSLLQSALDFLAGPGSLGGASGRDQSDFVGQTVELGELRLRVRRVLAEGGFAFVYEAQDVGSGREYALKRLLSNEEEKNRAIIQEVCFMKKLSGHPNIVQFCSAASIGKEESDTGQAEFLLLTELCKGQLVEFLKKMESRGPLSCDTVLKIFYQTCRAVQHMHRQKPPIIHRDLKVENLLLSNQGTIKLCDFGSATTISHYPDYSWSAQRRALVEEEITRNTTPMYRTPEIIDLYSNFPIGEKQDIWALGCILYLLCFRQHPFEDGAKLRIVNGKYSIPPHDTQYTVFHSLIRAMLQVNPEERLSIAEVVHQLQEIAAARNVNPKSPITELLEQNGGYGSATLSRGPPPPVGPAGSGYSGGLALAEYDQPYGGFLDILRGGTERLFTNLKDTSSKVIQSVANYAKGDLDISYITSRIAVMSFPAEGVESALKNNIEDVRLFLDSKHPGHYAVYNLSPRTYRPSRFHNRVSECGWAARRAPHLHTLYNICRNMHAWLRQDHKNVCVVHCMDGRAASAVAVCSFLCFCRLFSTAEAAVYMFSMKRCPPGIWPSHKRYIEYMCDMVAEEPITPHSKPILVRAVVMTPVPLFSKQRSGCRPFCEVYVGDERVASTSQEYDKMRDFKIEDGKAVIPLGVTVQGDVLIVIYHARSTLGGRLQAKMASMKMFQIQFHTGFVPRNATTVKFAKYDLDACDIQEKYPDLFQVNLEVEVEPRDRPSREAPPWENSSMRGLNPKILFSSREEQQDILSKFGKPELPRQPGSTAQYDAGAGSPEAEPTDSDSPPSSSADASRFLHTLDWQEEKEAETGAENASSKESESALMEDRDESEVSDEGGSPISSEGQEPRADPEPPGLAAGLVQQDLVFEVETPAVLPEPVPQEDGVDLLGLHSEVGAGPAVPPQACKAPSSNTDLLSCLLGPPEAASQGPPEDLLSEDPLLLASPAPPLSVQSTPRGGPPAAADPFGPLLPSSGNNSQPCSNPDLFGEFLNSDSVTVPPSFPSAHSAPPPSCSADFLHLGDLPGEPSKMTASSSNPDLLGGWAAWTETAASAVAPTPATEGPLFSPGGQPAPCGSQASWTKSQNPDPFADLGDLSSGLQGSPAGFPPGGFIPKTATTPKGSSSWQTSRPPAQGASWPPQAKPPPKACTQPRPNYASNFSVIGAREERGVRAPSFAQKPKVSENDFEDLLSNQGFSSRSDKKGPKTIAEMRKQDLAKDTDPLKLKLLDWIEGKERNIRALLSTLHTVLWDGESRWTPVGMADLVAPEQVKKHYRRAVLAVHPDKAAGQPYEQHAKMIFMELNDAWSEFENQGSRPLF
Chain of BRSK2 (human) (Q8IWQ3 whole entry, looked up): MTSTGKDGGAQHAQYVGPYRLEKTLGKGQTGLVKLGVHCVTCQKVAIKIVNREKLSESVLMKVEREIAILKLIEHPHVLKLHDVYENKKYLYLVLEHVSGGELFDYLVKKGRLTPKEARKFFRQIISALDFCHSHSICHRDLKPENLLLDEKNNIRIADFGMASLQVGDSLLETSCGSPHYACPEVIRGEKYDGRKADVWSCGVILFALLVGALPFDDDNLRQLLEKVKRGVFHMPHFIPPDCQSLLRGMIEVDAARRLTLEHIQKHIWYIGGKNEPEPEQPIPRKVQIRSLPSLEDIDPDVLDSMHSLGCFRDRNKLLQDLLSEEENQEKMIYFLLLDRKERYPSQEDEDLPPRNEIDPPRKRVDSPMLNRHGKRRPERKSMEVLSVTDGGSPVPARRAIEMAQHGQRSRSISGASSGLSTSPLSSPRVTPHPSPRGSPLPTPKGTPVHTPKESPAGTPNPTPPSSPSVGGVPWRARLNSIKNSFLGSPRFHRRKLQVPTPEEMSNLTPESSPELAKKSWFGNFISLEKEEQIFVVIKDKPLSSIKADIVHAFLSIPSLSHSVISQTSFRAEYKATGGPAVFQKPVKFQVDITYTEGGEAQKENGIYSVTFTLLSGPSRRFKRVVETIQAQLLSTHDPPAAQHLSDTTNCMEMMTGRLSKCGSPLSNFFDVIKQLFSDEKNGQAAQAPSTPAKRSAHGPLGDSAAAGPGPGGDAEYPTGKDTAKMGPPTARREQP
Chain of PRKAA1 (human) (Q13131 whole entry, looked up): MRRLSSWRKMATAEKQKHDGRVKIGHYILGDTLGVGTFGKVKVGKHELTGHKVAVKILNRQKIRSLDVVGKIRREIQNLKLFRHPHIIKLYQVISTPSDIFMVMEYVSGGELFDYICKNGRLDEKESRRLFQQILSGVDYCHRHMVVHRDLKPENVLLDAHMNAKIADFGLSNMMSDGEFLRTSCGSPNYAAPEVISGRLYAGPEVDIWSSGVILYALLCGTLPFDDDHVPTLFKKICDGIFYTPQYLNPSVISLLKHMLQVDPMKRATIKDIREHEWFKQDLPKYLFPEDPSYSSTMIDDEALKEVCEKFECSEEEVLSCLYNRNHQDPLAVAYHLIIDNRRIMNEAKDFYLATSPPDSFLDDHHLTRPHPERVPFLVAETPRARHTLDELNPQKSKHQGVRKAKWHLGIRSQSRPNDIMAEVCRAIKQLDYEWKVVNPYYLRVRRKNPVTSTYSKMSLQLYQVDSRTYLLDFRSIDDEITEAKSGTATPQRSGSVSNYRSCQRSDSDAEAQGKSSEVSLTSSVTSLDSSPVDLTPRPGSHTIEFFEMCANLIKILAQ

With `CN(C)c1ccc(-c2cc3ncccc3c(NCCCCN)n2)cc1` the kinase still bound, per cent of control [1] was 0%.
`CCS(=O)(=O)Nc1ccc2c(c1)[C@H](/C(=N/c1ccc(CN3CCCCC3)cc1)c1ccccc1)C(=O)N2` gave a kinase still bound, per cent of control [1] of 2.7%, a Kd [2] of 92 nM and a Kd [3] of 52 nM. The Kd [4] was 14000 nM, the Kd [5] was 19 nM and the Kd [6] was 33 nM. The Kd [7] was 10 nM, the Kd [8] was 77 nM and the Kd [9] was 94 nM. It also gave a Kd [10] of 31 nM and a Kd [11] of 75 nM.
In the case of `Cc1ccc(NC(=O)c2cccc(N3CCCCC3)c2)cc1-c1ccc(C(=O)NCC2CC2)cc1`, the “kinase still bound, per cent of control” value [1] is reported as “no effect (inactive)”.
In the case of `Cc1ccc(C(=O)Nc2cccc(C(C)(C)C)c2)cc1-c1ccc(C(=O)NCC2CC2)cc1`, the “kinase still bound, per cent of control” value [1] is reported as “no effect (inactive)” and the Kd [12] is reported as 80 nM.
`c1ccc(-c2n[nH]cc2-c2ccnc3ccccc23)nc1` showed a kinase still bound, per cent of control [1] of 0%.
